Source: paper PMC3902015 (Journal of Alzheimer's disease : JAD, 2012)
Entries after “also recorded” stand apart in the source; their conditions may differ. Values belong to the compound of their own block, whether it stands above or below them.

Key:
MRP1 = assay: Western blot of MRP1 in brain homogenate; format: in vivo, C57BL/6 wild-type mice; conditions: treated mice vs control
RAGE = assay: Western blot of RAGE in isolated brain microvessels; format: in vivo, C57BL/6 wild-type mice; conditions: treated mice vs control
[1] = cited from earlier work
LRP1 [2] = assay: RT-PCR of LRP1 mRNA in bEnd3 cells; format: cell-based, mouse; conditions: 50 µM, 72 h, vs control
LRP1 [3] = assay: Western blot of LRP1 protein in bEnd3 cells after drug treatment; conditions: 50 µM, 72 h, vs control (DMSO)
[4] = Drug concentration in plasma and brain homogenate; format: in vivo, C57BL/6 wild-type male mice; conditions: for concentration at 3 h: brain homogenate
[5] = Body weight during in vivo treatment; parameters: species or system C57BL/6 wild-type male mice; conditions: caffeine 40 mg/kg ip once daily, treatment limited to 2 weeks
P-gp [6] = assay: Immunofluorescence staining of P-gp in isolated brain microvessels; parameters: species or system C57BL/6 wild-type mice; conditions: mouse, in vivo
LRP1 [7] = assay: Immunofluorescence staining of LRP1 in isolated brain microvessels; parameters: species or system C57BL/6 wild-type mice; conditions: mouse, in vivo
MDR1 = conditions: bEnd3 cells, 50 µM, 72 h, vs control
[8] = after administration of 6.4 mg/kg dose; cited from earlier work
cognitive decline = conditions: mild to moderate AD patients, 3-month course of 300 mg/day; cited from earlier work
P-gp [9] = conditions: bEnd3 cells, 50 µM, 72 h, vs control (DMSO)
LRP1 [10] = target: LRP1 (Mus musculus, UniProt Q91ZX7); assay: BEI% of 125I-Aβ40 with LRP1 inhibition by intracerebral RAP; format: in vivo, C57BL/6 mice; conditions: for BEI% of 125I-Aβ40 after RAP pretreatment: RAP 19.5 ng/0.5 µl
P-gp [11] = target: P-gp (Mus musculus, UniProt P21447); assay: BEI% of 125I-Aβ40 with P-gp inhibition by intracerebral valspodar; format: in vivo, C57BL/6 mice; conditions: for BEI% of 125I-Aβ40 after valspodar pretreatment: valspodar 24 ng/0.5 µl
Chain of P-gp (Mus musculus, UniProt P21447) (P21447 whole entry): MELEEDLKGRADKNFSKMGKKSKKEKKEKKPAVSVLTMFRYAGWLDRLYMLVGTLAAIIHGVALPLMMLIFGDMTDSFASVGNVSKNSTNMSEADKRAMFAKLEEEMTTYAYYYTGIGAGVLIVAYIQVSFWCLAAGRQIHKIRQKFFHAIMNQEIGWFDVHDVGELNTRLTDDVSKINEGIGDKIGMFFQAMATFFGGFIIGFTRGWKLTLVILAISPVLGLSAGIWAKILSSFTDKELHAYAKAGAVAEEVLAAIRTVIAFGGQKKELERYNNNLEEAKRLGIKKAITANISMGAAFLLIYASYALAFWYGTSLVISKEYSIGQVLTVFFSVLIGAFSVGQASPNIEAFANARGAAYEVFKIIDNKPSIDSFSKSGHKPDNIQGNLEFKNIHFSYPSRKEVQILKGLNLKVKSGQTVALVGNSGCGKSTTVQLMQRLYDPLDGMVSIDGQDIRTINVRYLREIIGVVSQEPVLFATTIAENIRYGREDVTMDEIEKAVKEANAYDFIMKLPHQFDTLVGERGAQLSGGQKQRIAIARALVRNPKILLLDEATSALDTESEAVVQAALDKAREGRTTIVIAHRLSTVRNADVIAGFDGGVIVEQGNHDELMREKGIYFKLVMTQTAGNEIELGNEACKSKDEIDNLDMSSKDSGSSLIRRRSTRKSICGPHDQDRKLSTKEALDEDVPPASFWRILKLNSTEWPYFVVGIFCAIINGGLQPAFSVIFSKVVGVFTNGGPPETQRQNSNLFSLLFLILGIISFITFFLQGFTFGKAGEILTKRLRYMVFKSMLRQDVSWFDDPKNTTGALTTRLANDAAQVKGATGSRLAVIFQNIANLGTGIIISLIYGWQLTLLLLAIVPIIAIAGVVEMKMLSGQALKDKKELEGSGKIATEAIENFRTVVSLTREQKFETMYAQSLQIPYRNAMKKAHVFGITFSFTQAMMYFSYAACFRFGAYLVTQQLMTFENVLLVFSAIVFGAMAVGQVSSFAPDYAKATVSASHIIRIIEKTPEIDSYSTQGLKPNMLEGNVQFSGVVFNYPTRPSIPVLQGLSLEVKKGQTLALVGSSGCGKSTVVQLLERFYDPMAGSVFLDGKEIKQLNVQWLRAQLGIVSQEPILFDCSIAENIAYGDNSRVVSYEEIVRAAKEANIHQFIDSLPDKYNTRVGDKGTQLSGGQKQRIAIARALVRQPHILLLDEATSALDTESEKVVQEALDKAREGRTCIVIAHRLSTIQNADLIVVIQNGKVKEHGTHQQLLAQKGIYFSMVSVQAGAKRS

Compound: Cn1c(=O)c2c(ncn2C)n(C)c1=O [Caffeine]
- effect on brain homogenate's MRP1 expression (western blot) (MRP1): did not alter; also recorded: Insignificant differences
- effect on microvessels' RAGE expression (western blot) (RAGE): did not alter; also recorded: Insignificant differences
- plasma protein binding [1]: 10–37%
- increase in mRNA level of LRP1 (RT-PCR) (LRP1 [2]): did not show any effect
- increase in LRP1 level (densitometric analysis of western blot) (LRP1 [3]): but not caffeine
- Drug concentration Plasma ([4]; 3 h after last ip dose (rifampicin 20 mg/kg, caffeine 40 mg/kg daily), n = 12): 20000 ± 5400 ng/mL
- Kp at 3 h ([4]; male, C57BL/6, mouse, brain homogenate / plasma, ip): 0.5
- concentration at 3 h ([4]; male, C57BL/6, mouse, ip): 11800 ± 3600 ng/mL
- body weight observation during treatment [5]: weight loss
- increase in P-gp expression in brain microvessels (immunofluorescence) (P-gp [6]): 2.3 fold
- increase in LRP1 expression in brain microvessels (immunofluorescence) (LRP1 [7]): 1.2 fold

Compound: CO[C@H]1/C=C/O[C@@]2(C)Oc3c(C)c(O)c4c(O)c(c(/C=N/N5CCN(C)CC5)c(O)c4c3C2=O)NC(=O)/C(C)=C\C=C\[C@H](C)[C@H](O)[C@@H](C)[C@@H](O)[C@@H](C)[C@H](OC(C)=O)[C@@H]1C [Rifampicin]
- increase in mRNA of MDR1 (RT-PCR) (MDR1): 1.5 fold
- free (unbound) plasma level in humans [8]: 1.08 µg/mL
- effect on rate of cognitive decline (cognitive decline): attenuated the rate of cognitive decline
- increase in mRNA level of LRP1 (RT-PCR) (LRP1 [2]): 1.4 fold
- increase in LRP1 level (densitometric analysis of western blot) (LRP1 [3]): 1.2 fold
- increase in P-gp level (densitometric analysis of western blot) (P-gp [9]): 1.45 fold
- concentration at 3 h ([4]; male, C57BL/6, mouse, ip): 150 ± 80 ng/mL

- BEI% of 125I-Aβ40 after RAP pretreatment (LRP1 [10]; caffeine-treated mice, without RAP 80.4 ±[…]): 76.9 ±2.5%
- reduction in BEI% values by RAP (LRP1 [10]; control mice): about 33%
- reduction in BEI% values by RAP (LRP1 [10]; rifampicin-treated mice): ~13%
- BEI% of 125I-Aβ40 after RAP pretreatment (LRP1 [10]; rifampicin-treated mice, without RAP 82.4±[…]): 69.7 ±3.3%
Compound: RAP: human receptor associated protein, a specific LRP1 inhibitor

- reduction in BEI% values by valspodar (P-gp [11]; caffeine-treated mice): ~32%
- BEI% of 125I-Aβ40 after valspodar pretreatment (P-gp [11]; caffeine-treated mice, without valspodar 80.4±[…]): 48.1 ±2.3%
- reduction in BEI% values by valspodar (P-gp [11]; rifampicin-treated mice): ~25%
- BEI% of 125I-Aβ40 after valspodar pretreatment (P-gp [11]; rifampicin-treated mice, without valspodar 82.4±[…]): 57.5± 1.1%
Compound: C/C=C/C[C@@H](C)C(=O)[C@H]1C(=O)N[C@@H](C(C)C)C(=O)N(C)CC(=O)N(C)[C@@H](CC(C)C)C(=O)N[C@@H](C(C)C)C(=O)N(C)[C@@H](CC(C)C)C(=O)N[C@@H](C)C(=O)N[C@H](C)C(=O)N(C)[C@@H](CC(C)C)C(=O)N(C)[C@@H](CC(C)C)C(=O)N(C)[C@@H](C(C)C)C(=O)N1C [Valspodar]
